The NIST ThermoML archive (doi:10.1016/j.jct.2008.01.023)

Legend:
[1] = 298.15 K; 101.33 kPa; Liquid
[2] = refractive index (Na D-line) (dimensionless); conditions: 298.15 K; 101.33 kPa; Liquid; Standard Abbe refractometry
[3] = xn = mol fraction of the nth substance listed; conditions: 298.15 K, 101 kPa, Liquid
[4] = refractive index (Na D-line) (dimensionless); xn = mol fraction of the nth substance listed; conditions: 298.15 K, 101 kPa, Liquid, Standard Abbe refractometry

ClCCCCl [1,3-dichloropropane]
Conditions | mass density [kg/m3] | refractive index
[1] | 1179.1 | –
[2] | – | 1.446

CCOCCOCCO [3,6-dioxa-1-octanol] + CCCCn1cc[n+](C)c1.COS(=O)(=O)[O-]
Conditions | mass density, [3] [kg/m3] | refractive index, [4]
x2 = 0.0517 | 1003.36 | 1.4307
x2 = 0.0891 | 1016.08 | 1.4339
x2 = 0.1483 | 1035.02 | 1.4388
x2 = 0.2233 | 1057.1 | 1.4443
x2 = 0.2901 | 1074.98 | 1.4488
x2 = 0.3194 | 1082.5 | 1.4507
x2 = 0.3902 | 1099.82 | 1.4548
x2 = 0.4732 | 1118.6 | 1.4593
x2 = 0.5364 | 1131.83 | 1.4626
x2 = 0.6235 | 1148.55 | 1.4663
x2 = 0.696 | 1161.73 | 1.4697
x2 = 0.8065 | 1179.9 | 1.4735
x2 = 0.8947 | 1193.18 | 1.4763

CCO [ethanol]
Conditions | mass density [kg/m3] | refractive index
[1] | 785.18 | –
[2] | – | 1.3593

CCCCn1cc[n+](C)c1.COS(=O)(=O)[O-] [1-butyl-3-methylimidazolium methyl sulfate] + CCO
Conditions | mass density, [3] [kg/m3] | refractive index, [4]
x1 = 0.0459 | 850.62 | 1.3791
x1 = 0.0987 | 909.24 | 1.3956
x1 = 0.142 | 948.07 | 1.4067
x1 = 0.1905 | 984.34 | 1.417
x1 = 0.2357 | 1012.98 | 1.4253
x1 = 0.2733 | 1033.54 | 1.4314
x1 = 0.3516 | 1069.63 | 1.4414
x1 = 0.4381 | 1101.3 | 1.4503
x1 = 0.5335 | 1129.08 | 1.4581
x1 = 0.5712 | 1138.45 | 1.4609
x1 = 0.6742 | 1160.39 | 1.4667
x1 = 0.7665 | 1176.77 | 1.4715
x1 = 0.8482 | 1188.91 | 1.4745
x1 = 0.9248 | 1199.03 | 1.4772

CCCCn1cc[n+](C)c1.COS(=O)(=O)[O-] [1-butyl-3-methylimidazolium methyl sulfate]
Conditions | mass density [kg/m3] | refractive index
[1] | 1207.75 | –
[2] | – | 1.4794

CCCCn1cc[n+](C)c1.F[B-](F)(F)F [1-butyl-3-methylimidazolium tetrafluoroborate]
Conditions | mass density [kg/m3] | refractive index
[1] | 1201.41 | –
[2] | – | 1.4219

ClCCCCl [1,3-dichloropropane] + CCCCn1cc[n+](C)c1.F[B-](F)(F)F
Conditions | mass density, [3] [kg/m3] | refractive index, [4]
x2 = 0.0536 | 1184.13 | 1.4448
x2 = 0.1135 | 1187.8 | 1.443
x2 = 0.1516 | 1189.78 | 1.4418
x2 = 0.2101 | 1192.32 | 1.4401
x2 = 0.2817 | 1194.71 | 1.4381
x2 = 0.3528 | 1196.53 | 1.4359
x2 = 0.4042 | 1197.51 | 1.4345
x2 = 0.4626 | 1198.41 | 1.433
x2 = 0.5254 | 1199.14 | 1.4314
x2 = 0.5466 | 1199.38 | 1.4309
x2 = 0.5955 | 1199.76 | 1.4296
x2 = 0.6786 | 1200.34 | 1.4276
x2 = 0.7863 | 1200.89 | 1.4255
x2 = 0.9028 | 1201.2 | 1.4234

ClCCCCl [1,3-dichloropropane] + CCCCn1cc[n+](C)c1.COS(=O)(=O)[O-]
Conditions | mass density, [3] [kg/m3] | refractive index, [4]
x2 = 0.0429 | 1183.63 | 1.4499
x2 = 0.0674 | 1185.62 | 1.4518
x2 = 0.104 | 1188.24 | 1.4543
x2 = 0.1376 | 1190.37 | 1.4564
x2 = 0.1894 | 1193.17 | 1.4596
x2 = 0.2496 | 1195.76 | 1.4624
x2 = 0.3166 | 1198.02 | 1.4654
x2 = 0.3917 | 1200.02 | 1.4677
x2 = 0.4881 | 1201.98 | 1.4706
x2 = 0.5686 | 1203.19 | 1.4725
x2 = 0.6797 | 1204.61 | 1.4747
x2 = 0.7887 | 1205.73 | 1.4765
x2 = 0.8987 | 1206.82 | 1.4784

OCCO [1,2-ethanediol]
Conditions | refractive index
[2] | 1.4304

CCCCn1cc[n+](C)c1.F[B-](F)(F)F [1-butyl-3-methylimidazolium tetrafluoroborate] + OCCO
Conditions | mass density, [3] [kg/m3] | refractive index, [4]
x1 = 0.0517 | 1123.11 | 1.4287
x1 = 0.138 | 1138.78 | 1.4261
x1 = 0.1928 | 1146.51 | 1.425
x1 = 0.2567 | 1154.22 | 1.424
x1 = 0.3 | 1158.72 | 1.4235
x1 = 0.3324 | 1161.86 | 1.4231
x1 = 0.402 | 1167.89 | 1.4226
x1 = 0.4162 | 1168.98 | 1.4225
x1 = 0.4997 | 1175.1 | 1.4219
x1 = 0.5803 | 1180.22 | 1.4216
x1 = 0.632 | 1183.29 | 1.4215
x1 = 0.696 | 1186.82 | 1.4215
x1 = 0.8045 | 1192.48 | 1.4215
x1 = 0.9083 | 1197.33 | 1.4217
